Values of other authors, collected in patent US11377445B2, “Derivatives of paliperidone and process for the preparation thereof” (Zenvision Pharma LLP, priority 2018, dated 2022).

Compound	solubility in 0.1N HCl (0.1N HCl)	solubility in 0.1N NaOH (0.1N NaOH)	solubility in N, N-dimethylformamide (N, N-dimethylformamide)	solubility in hexane (hexane)	solubility in methylene chloride (methylene chloride)	solubility in water (water)	solubility in ethanol (ethanol)	solubility in ethyl acetate (ethyl acetate)	solubility in methanol (methanol)	solubility in polyethylene glycol 400 (polyethylene glycol 400)	solubility in propylene glycol (propylene glycol)
Cc1nc2n(c(=O)c1CCN1CCC(c3noc4cc(F)ccc34)CC1)CCCC2O (racemic) [Paliperidone, (±)-3-[2-[4-(6-fluoro-1,2-benzisoxazol-3-yl)-1-piperidinyl]ethyl]-6,7,8,9-tetrahydro-9-hydroxy-2-methyl-4Hpyrido[1,2-a]pyrimidin-4-one]	sparingly soluble	practically insoluble	slightly soluble	practically insoluble	sparingly soluble	practically insoluble	–	–	–	–	–
CCCCCCCCCCCCCCCC(=O)OC1CCCn2c1nc(C)c(CCN1CCC(c3noc4cc(F)ccc34)CC1)c2=O (centres unmarked) [Paliperidone palmitate]	–	–	–	–	–	–	very slightly soluble	slightly soluble	very slightly soluble	practically insoluble	practically insoluble
